In US8563542B2 (Cyclacel Limited, priority 2007, dated 2013):
Like-named read-outs stand apart in the source and are kept apart here.

Legend:
PLK1 = PLK1 (Homo sapiens, UniProt P53350); assay: PLK1 protein kinase assay (CDC25C phosphorylation, [γ-32P]-ATP); type: biochemical; conditions: read-out: PLK1 IC50
PLK2 = PLK2 (Homo sapiens, UniProt Q9NYY3); assay: PLK2 inhibition (PLK selectivity); type: biochemical; conditions: relative selectivity
PLK3 = PLK3 (Homo sapiens, UniProt Q9H4B4); assay: PLK3 inhibition (PLK selectivity); type: biochemical; conditions: relative selectivity
PLK3, sequence (Q9H4B4 whole entry): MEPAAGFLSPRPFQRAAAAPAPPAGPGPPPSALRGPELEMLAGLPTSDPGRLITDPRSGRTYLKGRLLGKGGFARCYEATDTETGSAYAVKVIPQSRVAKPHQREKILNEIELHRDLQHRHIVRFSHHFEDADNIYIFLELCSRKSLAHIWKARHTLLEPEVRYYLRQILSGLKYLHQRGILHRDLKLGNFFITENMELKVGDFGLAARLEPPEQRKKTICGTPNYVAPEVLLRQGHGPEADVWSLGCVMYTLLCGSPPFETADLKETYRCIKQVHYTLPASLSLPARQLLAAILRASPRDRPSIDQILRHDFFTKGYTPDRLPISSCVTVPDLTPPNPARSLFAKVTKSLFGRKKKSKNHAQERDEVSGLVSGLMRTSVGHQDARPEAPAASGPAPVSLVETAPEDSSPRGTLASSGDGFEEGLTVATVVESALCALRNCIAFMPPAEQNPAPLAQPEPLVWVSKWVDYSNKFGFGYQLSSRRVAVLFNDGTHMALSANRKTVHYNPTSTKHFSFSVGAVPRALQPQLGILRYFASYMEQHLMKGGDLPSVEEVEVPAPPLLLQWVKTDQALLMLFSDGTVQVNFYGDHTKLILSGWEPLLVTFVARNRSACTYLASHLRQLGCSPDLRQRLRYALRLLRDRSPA

[1] = system: A2780 and A2780/ADR cells; assay: Cell viability assay (Alamar Blue, 72 h), parental/MDR pair, asymmetry ratio; type: cell-based, human; conditions: paired parental and MDR tumour cell lines; Example 9, FIG. 3
Text: In vitro cell viability assays have been used to measure the effect of drug accumulation in paired parental and drug resistant tumour cell lines. The pairs used are the human ovarian carcinoma A2780 line with its MDR counterpart A2780/ADR and the human uterine sarcoma MES-SA line with its MDR counterpart MES-SA/Dx5 [Wesolowska O., et al. (2005) Anticancer Res., 25, 383-389].
Method: Cultivated human tumour cells of the ovarian cell line A2780 and its doxorubicin-resistant pair, A2780/ADR and the uterine cell line MES-SA and its doxorubicin-resistant pair, MES-SA/DX5 were seeded at 3000 cells per well in Nunc 96-well tissue culture plates, 100 μl per well in DMEM media containing 10% foetal calf serum and penicillin/streptomycin. […] The plates were then read at 544/595 nm.
The amount of Alamar Blue reagent reacted represents the metabolic activity of the cells. […] The values were calculated from the average of three individual measurements with blank correction (medium-only control).
The assay was performed on the Biomek FxP, automation platform from Beckman Coulter. The plates were read on the Paradigm plate reader supplied by Beckman Coulter. Asymmetry ratios were calculated as the IC50 value of the compound in the drug resistant cells divided by the IC50 value in the parental cells. […]

[2] = Pharmacokinetics in fasted conscious CD-1 mice (iv and oral); type: in vivo; conditions: 1 mg/kg iv, 5-10 mg/kg oral
Description: Preliminary investigations of the pharmacokinetics of selected compounds were carried out in fasted conscious CD-1 mice (25-30 g). Compounds were dosed as 1 mg/kg by intravenous administration or 5-10 mg/kg by oral route. Twenty one male mice per administration route (n=3 mice per time point) received dose solution by single bolus injection in the tail vein or by oral gavage. Blood samples were collected by cardiac puncture at 5, 15, 30, 60, 120, 240 and 360 min following iv administration and at 30, 60, 120, 240, 360, 480 and 1440 min following oral administration. Blood samples were collected into tubes containing the anti-coagulant lithium heparin, mixed and placed promptly on crushed ice. Plasma was derived from whole blood by centrifugation, frozen and stored at −80° C. prior to analysis. Plasma concentrations were determined by liquid chromatography-tandem mass spectrometry in electrospray positive mode (ESI LC/MS/MS) using calibration curves prepared in the appropriate matrix. The lower level of quantification (LLOQ) in all cases was ca. 5 ng/mL. Plasma concentration-time data was processed using the computer program WinNonLin version 5.2 from which areas under the plasma concentration-time curve (AUCall) were calculated by non-compartmental analysis using Model 201 (IV-bolus Input) or Model 200 (Extravascular Input).
FIG. 1 plots the area under the curve (AUC) for plasma concentration vs time for each compound tested. The dosing vehicle across these experiments remained constant (intravenous=citrate buffer pH 3, 1 mL/kg; oral=DMA/PEG400/10 […] Tartrate buffer, pH 4 (1:3:6), 5 ml/kg). FIG. 2 represents the same data in the form of oral bioavailability (% F) for each compound.

PLK2, sequence (Q9NYY3 whole entry): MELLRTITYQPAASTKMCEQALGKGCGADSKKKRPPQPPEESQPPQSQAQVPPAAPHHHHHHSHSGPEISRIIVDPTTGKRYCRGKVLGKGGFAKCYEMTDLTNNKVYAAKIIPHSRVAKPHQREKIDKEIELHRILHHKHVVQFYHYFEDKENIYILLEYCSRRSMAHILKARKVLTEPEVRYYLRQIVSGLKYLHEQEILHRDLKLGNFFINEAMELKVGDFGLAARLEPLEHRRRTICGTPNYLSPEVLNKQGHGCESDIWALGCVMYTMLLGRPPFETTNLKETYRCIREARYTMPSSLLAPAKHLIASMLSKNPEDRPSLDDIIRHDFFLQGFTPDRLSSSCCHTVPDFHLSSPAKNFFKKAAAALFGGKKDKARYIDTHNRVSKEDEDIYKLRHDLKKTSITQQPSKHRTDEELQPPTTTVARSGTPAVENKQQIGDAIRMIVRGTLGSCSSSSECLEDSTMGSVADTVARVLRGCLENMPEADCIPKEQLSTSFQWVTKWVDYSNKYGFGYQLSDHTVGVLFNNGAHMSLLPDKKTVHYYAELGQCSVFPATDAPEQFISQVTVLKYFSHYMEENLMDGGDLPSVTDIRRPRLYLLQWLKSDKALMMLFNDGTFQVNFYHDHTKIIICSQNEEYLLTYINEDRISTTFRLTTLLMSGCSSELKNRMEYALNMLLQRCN
PLK1, sequence (P53350 whole entry): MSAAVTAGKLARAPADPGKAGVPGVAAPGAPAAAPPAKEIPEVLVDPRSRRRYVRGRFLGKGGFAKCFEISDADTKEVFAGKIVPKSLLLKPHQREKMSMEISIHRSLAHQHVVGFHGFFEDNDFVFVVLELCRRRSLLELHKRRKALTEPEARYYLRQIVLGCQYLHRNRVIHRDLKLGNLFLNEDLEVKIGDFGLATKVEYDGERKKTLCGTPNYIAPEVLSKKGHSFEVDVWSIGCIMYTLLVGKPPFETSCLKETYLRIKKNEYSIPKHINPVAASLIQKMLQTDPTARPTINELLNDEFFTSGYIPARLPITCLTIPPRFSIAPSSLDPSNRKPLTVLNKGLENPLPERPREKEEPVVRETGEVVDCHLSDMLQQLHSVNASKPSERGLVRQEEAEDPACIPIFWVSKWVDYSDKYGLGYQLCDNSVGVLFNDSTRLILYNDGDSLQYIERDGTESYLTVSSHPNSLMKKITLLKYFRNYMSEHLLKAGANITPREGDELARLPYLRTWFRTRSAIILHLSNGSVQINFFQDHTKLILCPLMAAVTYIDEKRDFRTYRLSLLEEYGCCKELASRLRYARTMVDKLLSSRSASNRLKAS

COc1cc(C(=O)NC2CN3CCC2CC3)ccc1Nc1ncc2c(n1)N(C1CCCC1)CC1(CCC1)C(=O)N2C (racemic) [Compound 218, (±)-4-(9′-cyclopentyl-5′-methyl-6′-oxo-5′,6′,8′,9′-tetrahydrospiro[cyclobutane-1,7′-pyrimido[4,5-b][1,4]diazepine]-2′-ylamino)-3-methoxy-N-(quinuclidin-3-yl)benzamide]
IC50 (PLK1; Table 2, PLK1 IC50, class symbols): < 100 nM | IC50 (PLK1; Table 3): < 100 nM | IC50 (PLK1; Table 4): < 100 nM | Selectivity for PLK1 versus PLK2 compared to compound [I-4] of WO 07/095188 (PLK2): 7 fold | Selectivity for PLK1 versus PLK2 compared to compound [I-64] of WO 07/095188 (PLK2): twice | Selectivity for PLK1 versus PLK2 compared to compound [I-76] of WO 07/095188 (PLK2): ~6 fold | Selectivity for PLK1 versus PLK3 compared to compound [I-4] of WO 07/095188 (PLK3): 5 fold | Selectivity for PLK1 versus PLK3 compared to compound [I-64] of WO 07/095188 (PLK3): 5 fold | Selectivity for PLK1 versus PLK3 compared to compound [I-76] of WO 07/095188 (PLK3): ~12 fold

COc1cc(C(=O)N[C@H]2CC[C@H](N3CCN(CC4CC4)CC3)CC2)ccc1Nc1ncc2c(n1)N(C1CCCC1)CC(C)(C)C(=O)N2C [Compound 372, 4-(9-cyclopentyl-5,7,7-trimethyl-6-oxo-6,7,8,9-tetrahydro-5H-pyrimido[4,5-b][1,4]diazepin-2-ylamino)-N-((trans)-4-(4-(cyclopropylmethyl)piperazin-1-yl)cyclohexyl)-3-methoxybenzamide]
IC50 (PLK1; Table 3): < 100 nM | Cellular efflux (MDR/parental cell asymmetry in cell viability assays) [1]: low cellular efflux

COc1cc(C(=O)N[C@H]2CC[C@H](N3CCN(CC4CC4)CC3)CC2)ccc1Nc1ncc2c(n1)N(C1CCCC1)CC1(CC1)C(=O)N2C [H]
Oral bioavailability (% F) compared to compounds A-G [2]: markedly superior | Systemic exposure (plasma AUC) compared to compounds A-G [2]: markedly superior

COc1cc(C(=O)N[C@H]2CC[C@H](N3CCN(CC4CC4)CC3)CC2)ccc1Nc1ncc2c(n1)N(C1CCCC1)CCC(=O)N2C [I]
Oral bioavailability (% F) compared to compounds A-G [2]: markedly superior | Systemic exposure (plasma AUC) compared to compounds A-G [2]: markedly superior
